Test results taken from US20030149028A1, “Pesticidal compositions” (priority 2001, published 2003).

What was measured:
Assay type in all cases: in vivo
[1] = test system: rice leafhopper species Nephoteftix cincticeps; experiment: Method D: Nephotettix cinciceps Screen; conditions: concentration of 500 ppm or less; rice plants dipped, L3 larvae, after 6 days at 25° C.
Protocol: Method D: Nephotettix cinciceps Screen
The leaves of 12 rice plants having a stem length of 8 cm were dipped for 5 seconds into an aqueous solution of the formulated preparation to be examined. After the solution had run off, the rice plants treated in this manner were placed in a Petri dish and populated with about 20 larvae (L3 stage) of the rice leafhopper species Nephoteftix cincticeps. The Petri dish was closed and then stored in a climate chamber (16 hours of light/day, 25° C., 40-60% relative atmospheric humidity). After 6 days storage, the mortality among the leafhopper larvae was determined.

[2] = test system: tick larvae (Rhipicephalus sanguineus); experiment: Method E: Rhipicephalus sanguineus Screen; conditions: concentration of 500 ppm or less, treated filter paper, after 24 hours at 25° C.
Protocol: Method E: Rhipicephalus sanguineus Screen A solution of the formulated preparation to be examined was dropped onto filter paper. After solvent evaporation the filter paper was infested with 20-30 tick larvae (Rhipicephalus sanguineus). After 24 hours storage at 25° C. the efficacy of the preparation was determined.

[3] = test system: black bean aphids (Aphis fabae); experiment: Method B: Aphis fabae Screen; conditions: concentration of 500 ppm or less; added to water of field bean (Vicia faba) plants, effect on aphids after 3 and 6 days at 25° C.
Protocol: Method B: Aphis fabae Screen Germinated field bean seeds (Vicia faba) with roots were transferred into bottles filled with tap water and an aqueous solution of the formulated preparation to be examined (4 ml) was added. The plants were then infested with approximately 100 black bean aphids (Aphis fabae) and stored in a controlled-environment cabinet at 25° C. After 3 and 6 days storage, the effect of the preparation on the aphids was determined.

SMILES: CC1=NN(c2c(Cl)cc(C(F)(F)F)cc2Cl)C(=O)C12SC1C=CC2C1 (stereo not drawn) [Compound 8, [1-(2,6-dichloro-4-trifluoromethylphenyl)-3-methylpyrazolin-5-one]-4-spiro-3′-(2′-thiabicyclo[2.2.1]hept-5′-ene)]
- control (mortality among the leafhopper larvae) [1]: at least 50%

SMILES: CC1=C(C)CC2(SC1)C(=O)N(c1c(Cl)cc(C(F)(F)F)cc1Cl)N=C2C#N (stereo not drawn) [Compound 9, [1-(2,6-dichloro-4-trifluoromethylphenyl)-3-cyanopyrazolin-5-one]-4-spiro-2′-(4′,5′-dimethyl-2′H-3′,6′-dihydrothiane)]
- control (efficacy) [2]: at least 50%

SMILES: CC1=NN(c2c(Cl)cc(C(F)(F)F)cc2Cl)C(=O)C12CC=C(c1ccccc1)C[S+]2[O-] (stereo not drawn) [Compound 12, [1-(2,6-dichloro-4-trifluoromethylphenyl)-3-methylpyrazolin-5-one]-4-spiro-2′-(5′-phenyl-1′-oxo-2′H-3′,6′-dihydrothiane)]
- control [3]: at least 50%
